Source: patent publication US10125134B2 (Mirati Therapeutics, Inc., priority 2016, dated 2018)
Read-outs that look alike come from different tables or passages of the source.

Columns and labels:
[1] = target: KRas G12C (Homo sapiens, UniProt P01116, C118S/C51S/C80L/G12C); experiment: KRas G12C Modification Assay (LCMS detection of covalent adduct); format: binding
Outline: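 Cys-light KRas G12C mutant protein incubated with compound in K-Ras assay buffer, reactions quenched at set time points with 25 mM acetic acid and analysed by intact-protein LC/MS on a C-3 column. Deconvoluted mass heights expressed as percent of control (POC) relative to compound-free protein.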

[2] = system: NCI-H358 cells (express KRas G12C), Phospho-ERK; experiment: Cellular inhibition of KRas G12C: Phospho-ERK in NCI-H358 cells; format: cell-based
Outline: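 IC50 derived by 4-parameter fit of GAPDH-normalized pERK(Thr202/Tyr204) signal, as percent of DMSO control. Signal came from in-cell immunodetection with infrared secondaries after 3 h compound exposure of KRas G12C NCI-H358 cells at 0.5% DMSO.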

[3] = normalized percent of control, tested at 5 μM concentration for 3 hours
[4] = Homo sapiens, NCI-H358, 3 h, pERK(Thr202/Tyr204) normalized with GAPDH, NCI-H358 cells, 3 hours, read-out: IC50
[5] = Homo sapiens, pERK(Thr202/Tyr204) normalized with GAPDH, NCI-H358 cells, 3 hours, read-out: IC50

| Compound | POC [1, 3] | IC50 [2, 4] [µM] | also measured |
| --- | --- | --- | --- |
| C=CC(=O)N1[C@@H]2CC[C@H]1CN(c1nc(OC(C)CN(C)C)nc3c1CCN(c1cc(O)cc4ccccc14)C3)C2 (stereo partly drawn) [Example 45, 1-((1R,5S)-3-(2-((1-(dimethylamino)propan-2-yl)oxy)-7-(3-hydroxynaphthalen-1-yl)-5,6,7,8-tetrahydropyrido[3,4-d]pyrimidin-4-yl)-3,8-diazabicyclo[3.2.1]octan-8-yl)prop-2-en-1-one] | A (“A”≤25% POC) |  | IC50 [2, 5]: > 1 µM |
| C=CC(=O)N1CCN(c2nc(OC[C@@H]3CCC(=O)N3)nc3c2CCN(c2cc(O)cc4ccccc24)C3)CC1 [Example 57, (S)-5-(((4-(4-acryloylpiperazin-1-yl)-7-(3-hydroxynaphthalen-1-yl)-5,6,7,8-tetrahydropyrido[3,4-d]pyrimidin-2-yl)oxy)methyl)pyrrolidin-2-one] | C (“C”>50% POC) | > 1 |  |
| C=CC(=O)N1CC2(C1)CN(c1nc(OC(C)CN(C)C)nc3c1CCN(c1cc(O)cc4ccccc14)C3)C2 (stereo not drawn) [Example 18, 1-(6-(2-((1-(dimethylamino)propan-2-yl)oxy)-7-(3-hydroxynaphthalen-1-yl)-5,6,7,8-tetrahydropyrido[3,4-d]pyrimidin-4-yl)-2,6-diazaspiro[3.3]heptan-2-yl)prop-2-en-1-one] | C (“C”>50% POC) |  | IC50 [2, 5]: > 1 µM |
| C=CC(=O)N1CCN(c2nc(OC3CCN(C)CC3)nc3c2CCN(c2cc(O)cc4ccccc24)C3)CC1 [Example 22, 1-(4-(7-(3-hydroxynaphthalen-1-yl)-2-((1-methylpiperidin-4-yl)oxy)-5,6,7,8-tetrahydropyrido[3,4-d]pyrimidin-4-yl)piperazin-1-yl)prop-2-en-1-one] | C (“C”>50% POC) | > 1 |  |
| C=CC(=O)N1CCN(c2nc(OCCN(C)C)nc3c2CCN(c2cc(O)cc4ccccc24)C3)C(CCO)C1 (stereo not drawn) [Example 172, 1-(4-(2-(2-(dimethylamino)ethoxy)-7-(3-hydroxynaphthalen-1-yl)-5,6,7,8-tetrahydropyrido[3,4-d]pyrimidin-4-yl)-3-(2-hydroxyethyl)piperazin-1-yl)prop-2-en-1-one] | C (“C”>50% POC) | > 1 |  |
| C=CC(=O)N1CCN(c2nc(OC(C)CCN3CCOCC3)nc3c2CCN(c2cc(O)cc4ccccc24)C3)CC1 (stereo not drawn) [Example 93, 1-(4-(7-(3-hydroxynaphthalen-1-yl)-2-((4-morpholinobutan-2-yl)oxy)-5,6,7,8-tetrahydropyrido[3,4-d]pyrimidin-4-yl)piperazin-1-yl)prop-2-en-1-one] | C (“C”>50% POC) | > 1 |  |
| C=CC(=O)N1CCN(c2nc(OCC3CCN(CC(=O)N(C)C)C3)nc3c2CCN(c2cc(O)cc4ccccc24)C3)CC1 (stereo not drawn) [Example 140, 2-[3-[[7-(3-hydroxy-1-naphthyl)-4-(4-prop-2-enoylpiperazin-1-yl)-6,8-dihydro-5H-pyrido[3,4-d]pyrimidin-2-yl]oxymethyl]pyrrolidin-1-yl]-N,N-dimethyl-acetamide] | C (“C”>50% POC) | > 1 |  |
| C=CC(=O)N1CCN(c2nc(OC(C)CNC)nc3c2CCN(c2cc(O)cc4ccccc24)C3)CC1 (stereo not drawn) [Example 70, 1-(4-(7-(3-hydroxynaphthalen-1-yl)-2-((1-(methylamino)propan-2-yl)oxy)-5,6,7,8-tetrahydropyrido[3,4-d]pyrimidin-4-yl)piperazin-1-yl)prop-2-en-1-one] | C (“C”>50% POC) | > 1 |  |
| C=CC(=O)N1CCN(c2nc(OC[C@@H]3CCCN3C)nc3c2CCN(c2c(C(C)C)ccc4[nH]ncc24)C3)CC1 [Example 248, (S)-1-(4-(7-(5-isopropyl-1H-indazol-4-yl)-2-((1-methylpyrrolidin-2-yl)methoxy)-5,6,7,8-tetrahydropyrido[3,4-d]pyrimidin-4-yl)piperazin-1-yl)prop-2-en-1-one] |  |  | POC ([1]; 5 µM): C (key: “A”≤25% POC; “B”>25% POC−≤50% POC; “C”>50% POC); IC50 ([2]; Homo sapiens, NCI-H358, 3 h): > 1 µM |
| C=CC(=O)N1CCN(c2nc(OCCN3CCC(OC)CC3)nc3c2CCN(c2cc(O)cc4ccccc24)C3)CC1 [Example 108, 1-(4-(7-(3-hydroxynaphthalen-1-yl)-2-(2-(4-methoxypiperidin-1-yl)ethoxy)-5,6,7,8-tetrahydropyrido[3,4-d]pyrimidin-4-yl)piperazin-1-yl)prop-2-en-1-one] | C (“C”>50% POC) | 0.0001 to 1 |  |
| C=CC(=O)N1CCN(c2nc(OCCCN3CCCC3)nc3c2CCN(c2cc(O)cc4ccccc24)C3)CC1 [Example 39, 1-(4-(7-(3-hydroxynaphthalen-1-yl)-2-(3-(pyrrolidin-1-yl)propoxy)-5,6,7,8-tetrahydropyrido[3,4-d]pyrimidin-4-yl)piperazin-1-yl)prop-2-en-1-one] | C (“C”>50% POC) | 0.0001 to 1 |  |

Now from value to compound, other results behind:

| POC [1, 3] | Compound | IC50 [2, 4] [µM] | also measured |
| --- | --- | --- | --- |
| C (“C”>50% POC) | C=CC(=O)N1CCN(c2nc(OC[C@@H]3CCCN3C)nc3c2CCN(c2cccc(C)c2C)C3)CC1CC#N (stereo partly drawn) [Example 228, 2-(1-acryloyl-4-(7-(2,3-dimethylphenyl)-2-(((S)-1-methylpyrrolidin-2-yl)methoxy)-5,6,7,8-tetrahydropyrido[3,4-d]pyrimidin-4-yl)piperazin-2-yl)acetonitrile] | 0.0001 to 1 |  |
| C (“C”>50% POC) | C=CC(=O)N1CCN(c2nc(OC[C@@H]3CCCN3C)nc3c2CCN(c2cnccc2C#N)C3)C[C@@H]1CC#N [Example 305, 3-(4-((S)-4-acryloyl-3-(cyanomethyl)piperazin-1-yl)-2-(((S)-1-methylpyrrolidin-2-yl)methoxy)-5,6-dihydropyrido[3,4-d]pyrimidin-7(81)-yl)isonicotinonitrile] | > 1 |  |
| C (“C”>50% POC) | C=CC(=O)N1CCN(c2nc(OC[C@H]3CCN(C)C3)nc3c2CCN(c2cc(O)cc4ccccc24)C3)CC1 [Example 188, (S)-1-(4-(7-(3-hydroxynaphthalen-1-yl)-2-((1-methylpyrrolidin-3-yl)methoxy)-5,6,7,8-tetrahydropyrido[3,4-d]pyrimidin-4-yl)piperazin-1-yl)prop-2-en-1-one] | 0.0001 to 1 |  |
| C (“C”>50% POC) | C=CC(=O)N1CCN(c2nc(OC[C@@H]3CCCN3C)nc3c2CCN(c2cccc4cc(F)ccc24)C3)CC1CC#N (stereo partly drawn) [Example 290, 2-[4-[7-(6-fluoro-1-naphthyl)-2-[[(2S)-1-methylpyrrolidin-2-yl]methoxy]-6,8-dihydro-5H-pyrido[3,4-d]pyrimidin-4-yl]-1-prop-2-enoyl-piperazin-2-yl]acetonitrile] |  | IC50 ([2]; pERK(Thr202/Tyr204) normalized with GAPDH, NCI-H358 cells, 3 hours, read-out: IC50): 0.0001 to 1 µM |
| C (“C”>50% POC) | C=CC(=O)N1CCN(c2nc(OC[C@@H]3CCCN3C)nc3c2CCN(c2cccc(F)c2C)C3)C[C@@H]1CC#N [Example 388, 2-((S)-1-acryloyl-4-(7-(3-fluoro-2-methylphenyl)-2-(((S)-1-methylpyrrolidin-2-yl)methoxy)-5,6,7,8-tetrahydropyrido[3,4-d]pyrimidin-4-yl)piperazin-2-yl)acetonitrile] | 0.0001 to 1 |  |
| C (“C”>50% POC) | C=CC(=O)N1CCN(c2nc(OC[C@@H]3CCCN3C(C)C)nc3c2CCN(c2cc(O)cc4ccccc24)C3)CC1 [Example 145, 1-[4-[7-(3-hydroxy-1-naphthyl)-2-[[(2S)-1-isopropylpyrrolidin-2-yl]methoxy]-6,8-dihydro-5H-pyrido[3,4-d]pyrimidin-4-yl]piperazin-1-yl]prop-2-en-1-one] | 0.0001 to 1 |  |
| C (“C”>50% POC) | CCN1CCC[C@H]1COc1nc2c(c(N3CCN(C(=O)/C=C/CN(C)C)[C@@H](CC#N)C3)n1)CCN(c1cccc3ccccc13)C2 [Example 400, 2-((S)-1-((E)-4-(dimethylamino)but-2-enoyl)-4-(2-(((S)-1-ethylpyrrolidin-2-yl)methoxy)-7-(naphthalen-1-yl)-5,6,7,8-tetrahydropyrido[3,4-d]pyrimidin-4-yl)piperazin-2-yl)acetonitrile] | 0.0001 to 1 |  |
| C (“C”>50% POC) | C=CC(=O)N1CCN(c2nc(OC[C@@H]3CCCN3C)nc3c2CCN(c2cncc(F)c2C(F)(F)F)C3)C[C@@H]1CC#N [Example 383, 2-((S)-1-acryloyl-4-(7-(5-fluoro-4-(trifluoromethyl)pyridin-3-yl)-2-(((S)-1-methylpyrrolidin-2-yl)methoxy)-5,6,7,8-tetrahydropyrido[3,4-d]pyrimidin-4-yl)piperazin-2-yl)acetonitrile] | 0.0001 to 1 |  |
| C (“C”>50% POC) | C=CC(=O)N1CCN(c2nc(OC[C@@H]3CCCN3C)nc3c2CCN(c2cccc(Cl)c2CC)C3)C[C@@H]1CC#N [Example 337, 2-[(2S)-4-[7-(3-chloro-2-ethyl-phenyl)-2-[[(2S)-1-methylpyrrolidin-2-yl]methoxy]-6,8-dihydro-5H-pyrido[3,4-d]pyrimidin-4-yl]-1-prop-2-enoyl-piperazin-2-yl]acetonitrile] | 0.0001 to 1 |  |
| C (“C”>50% POC) | CN1CCC[C@H]1COc1nc2c(c(N3CCN(C(=O)/C=C/CN4CCOCC4)[C@@H](CC#N)C3)n1)CCN(c1cccc(Cl)c1C(F)(F)F)C2 [Example 346, 2-[(2S)-4-[7-[3-chloro-2-(trifluoromethyl)phenyl]-2-[[(2S)-1-methylpyrrolidin-2-yl]methoxy]-6,8-dihydro-5H-pyrido[3,4-d]pyrimidin-4-yl]-1-[(E)-4-morpholinobut-2-enoyl]piperazin-2-yl]acetonitrile] | 0.0001 to 1 |  |
